In ChEMBL document CHEMBL3351785, “Discovery of nanomolar phosphoinositide 3-kinase gamma (PI3Kγ) inhibitors using ligand-based modeling and virtual screening followed by in vitro analysis” (Eur J Med Chem, 2014):
Non-standard residues stand in square brackets, D forms with d. Residues, ends and D or L forms follow the SMILES beside them. *: point of attachment. Cbz = O=C(OCc1ccccc1)*; Nva = CCC[CH](N)C(=O)O; Bn = c1ccc(C*)cc1

Molecular target: T1, Phosphatidylinositol 4,5-bisphosphate 3-kinase catalytic subunit gamma isoform (Homo sapiens, UniProt P48736)
Test: Inhibition of PI3Kgamma (unknown origin) assessed as decrease in fluorescence intensity using phosphorylated substrate at 10 uM
Target sequence in this assay (P48736 whole entry, looked up, canonical isoform): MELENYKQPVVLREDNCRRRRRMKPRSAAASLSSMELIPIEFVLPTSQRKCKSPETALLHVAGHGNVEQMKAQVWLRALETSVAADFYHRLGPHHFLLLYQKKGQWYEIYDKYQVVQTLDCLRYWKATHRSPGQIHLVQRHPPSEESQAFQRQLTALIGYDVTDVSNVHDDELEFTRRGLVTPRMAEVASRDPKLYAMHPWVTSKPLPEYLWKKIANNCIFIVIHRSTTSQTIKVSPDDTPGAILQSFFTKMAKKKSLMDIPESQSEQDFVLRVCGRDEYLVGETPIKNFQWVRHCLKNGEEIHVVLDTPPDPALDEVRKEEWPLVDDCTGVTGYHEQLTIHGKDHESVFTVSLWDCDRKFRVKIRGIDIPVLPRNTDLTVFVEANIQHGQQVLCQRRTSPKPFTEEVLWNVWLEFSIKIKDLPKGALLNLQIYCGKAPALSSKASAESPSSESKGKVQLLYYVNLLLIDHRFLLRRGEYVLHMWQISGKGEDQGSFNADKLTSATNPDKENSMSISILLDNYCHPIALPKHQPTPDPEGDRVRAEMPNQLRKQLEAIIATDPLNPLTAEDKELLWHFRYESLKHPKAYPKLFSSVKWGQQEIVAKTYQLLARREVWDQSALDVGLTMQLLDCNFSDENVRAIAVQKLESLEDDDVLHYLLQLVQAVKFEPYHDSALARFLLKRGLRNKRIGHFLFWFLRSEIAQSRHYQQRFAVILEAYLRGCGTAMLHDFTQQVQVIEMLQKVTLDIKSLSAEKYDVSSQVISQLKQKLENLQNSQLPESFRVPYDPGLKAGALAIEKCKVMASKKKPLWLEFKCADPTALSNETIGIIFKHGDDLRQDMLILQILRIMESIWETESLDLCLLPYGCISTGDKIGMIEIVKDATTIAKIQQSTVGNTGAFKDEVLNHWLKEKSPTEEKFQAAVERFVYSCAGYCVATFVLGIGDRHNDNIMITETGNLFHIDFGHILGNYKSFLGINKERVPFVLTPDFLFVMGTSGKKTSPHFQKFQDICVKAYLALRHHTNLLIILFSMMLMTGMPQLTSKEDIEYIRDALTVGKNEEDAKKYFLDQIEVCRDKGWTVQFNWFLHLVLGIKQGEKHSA

Point of comparison: CCN1C(=O)/C(=C\c2cc([N+](=O)[O-])ccc2OCC(=O)O)SC1=S, inhibition 81%. Against it:
- O=C(NC(Cc1ccc(O)cc1)C(=O)O)C(=O)c1c[nH]c2ccc([N+](=O)[O-])cc12 (stereo unspecified) — lower, 34%
- COc1ccc(C(CC(=O)O)c2cc(OC)c(OC)c(OC)c2)cc1OC (stereo unspecified) — lower, 58%
- O=C(O)Cc1ccc(OCCCOc2ccc(CC(=O)O)cc2)cc1 — lower, 24%
- O=C(NC(Cc1ccccc1)C(=O)NC(Cc1ccc(O)cc1)C(=O)O)OCc1ccccc1 (stereo not drawn) (Cbz-Phe-Tyr-OH; configuration not given here) — lower, 34%
- CC(C)CC(NC(=O)OCc1ccccc1)C(=O)NC(Cc1ccc(O)cc1)C(=O)O (stereo not drawn) (Cbz-Leu-Tyr-OH; configuration not given here) — lower, 57%
- COc1ccc(C(CC(=O)c2ccc3c(c2)OCO3)C(=O)O)cc1OC (stereo unspecified) — higher, 94%
- O=S(=O)(O)c1cc(O)c2ccc(Nc3ccc4c(O)cc(S(=O)(=O)O)cc4c3)cc2c1 — lower, 31%
- O=S(=O)(O)c1ccc(OCCCCCCCCCCOc2ccc(S(=O)(=O)O)cc2)cc1 — lower, 11%
- COC[C@H]1OC(=O)c2coc3c2[C@@]1(C)C1=C(C3=O)[C@@H]2CCC(=O)[C@@]2(C)C[C@H]1OC(C)=O — higher, 100%
- CCCCOc1ccc(CCC(=O)O)cc1OCCCC — lower, 20%
- CCCCCCCCCCCCCCCC1=NN(c2ccc(S(=O)(=O)O)cc2)C(=O)C1/N=N/c1ccccc1 (stereo unspecified) — higher, 92%
- O=C(COc1ccc(Cl)cc1C(=O)O)Nc1cccc(NC(=O)Nc2cccc(S(=O)(=O)F)c2)c1 — lower, 51%
- O=C(O)C[S+]([O-])c1ccc2c3c(cccc13)C(=O)c1ccccc1-2 (stereo unspecified) — lower, 67%
- O=C(O)Cc1ccc(OCCCCCOc2ccc(CC(=O)O)cc2)cc1 — lower, 7%
- COc1cc2cc(C(=O)O)[nH]c2cc1OCc1ccccc1 — higher, 100%
- Cc1cc2c(cc1C(=O)CCC(=O)O)CC1(C2)Cc2cc(C)c(C(=O)CCC(=O)O)cc2C1 — lower, 67%
- CSCCC(NCc1c(O)ccc2c(-c3ccccc3)cc(=O)oc12)C(=O)O (stereo unspecified) — lower, 27%
- COc1ccccc1/N=N/c1c(O)ccc2cc(S(=O)(=O)O)ccc12 — lower, 19%
- COc1cc2cc3c4cc(OC)c(OC)cc4cc[n+]3c(CCC(=O)O)c2cc1OC — lower, 57%
- CCCC(NC(=O)OCc1ccccc1)C(=O)NC(Cc1ccc(O)cc1)C(=O)O (stereo unspecified) (Cbz-[Nva]-Tyr-OH; configuration not given here) — lower, 10%
- CCOc1nc(OCC)c2[nH]c(C(=O)O)c(Br)c2n1 — lower, 50%
- O=C(O)CCC(=O)c1ccc(Oc2ccc(Cl)cc2)cc1 — lower, 51%
- CCOc1ccc(Nc2ccc3c(O)cc(S(=O)(=O)O)cc3c2)cc1 — lower, 72%
- O=C(NC(CSCc1ccccc1)C(=O)NC(Cc1ccc(O)cc1)C(=O)O)OCc1ccccc1 (stereo unspecified) (Cbz-Cys(Bn)-Tyr-OH; configuration not given here) — lower, 40%
- Cc1cc(C(=O)O)c(C)cc1SSc1cc(C)c(C(=O)O)cc1C — higher, 83%
- O=S(=O)(O)c1ccc2c(/N=N/c3ccccc3Cl)c(O)ccc2c1 — lower, 76%
- COc1cc(C[C@@H](CC(=O)c2ccc3c(c2)OCO3)C(=O)O)cc(OC)c1OC — higher, 83%
- O=C(O)C(Nc1ccc(Oc2ccc(NC(C(=O)O)c3ccccc3)cc2)cc1)c1ccccc1 (stereo unspecified) — lower, 57%
- CCCCOc1ccc(C(CC(=O)O)CC(=O)O)cc1OC — higher, 98%
- COc1ccc2cc(C(=O)CCCC(C)C(=O)O)ccc2c1 (stereo unspecified) — lower, 58%
- O=S(=O)(O)c1ccc(OCCCCCCCCOc2ccc(S(=O)(=O)O)cc2)cc1 — higher, 83%
- O=C(CCCCn1cnc2c(SCc3ccccc3)ncnc21)Nc1ccc(C(=O)O)c(O)c1 — lower, 37%
- O=C(NC(Cc1ccc(OC(=O)OCc2ccccc2)cc1)C(=O)O)OCc1ccccc1 (stereo unspecified) — lower, 79%
- O=C(O)c1ccccc1SC(Sc1ccccc1C(=O)O)c1cccc(Cl)c1 — higher, 88%
- COc1cc(/N=N\c2ccc(S(=O)(=O)O)cc2)ccc1/N=N/c1c(O)ccc2cc(S(=O)(=O)O)ccc12 — lower, 62%
- COc1cc(C(CC(=O)O)CC(=O)O)ccc1OCc1ccccc1 — lower, 57%
- Cc1ccccc1/N=N\c1ccc(/N=N/c2c(O)ccc3cc(S(=O)(=O)O)ccc23)c(C)c1 — lower, 64%
- COc1ccccc1/N=N/c1c(O)c(S(=O)(=O)O)cc2cc(S(=O)(=O)O)ccc12 — lower, 76%

Molecular target: T1, Phosphatidylinositol 4,5-bisphosphate 3-kinase catalytic subunit gamma isoform
Test: Inhibition of PI3Kgamma (unknown origin) assessed as decrease in fluorescence intensity using phosphorylated substrate
Target sequence in this assay (P48736 whole entry, canonical isoform): as the sequence (P48736 whole entry, looked up, canonical isoform) above

Point of comparison: O=c1cc(N2CCOCC2)[nH]c2c(Oc3ccc(F)cc3)cccc12, IC50 18100 nM. Against it:
- O=c1c2c(Cl)cccc2nc(CSc2ncnc3[nH]cnc23)n1-c1ccccc1F — 5-fold lower, 3630 nM
- O=c1c2ccc(F)cc2nc(CSc2ncnc3[nH]cnc23)n1-c1ccccc1Cl — 8-fold higher, 145000 nM
- Cc1ccc(CN2C(=O)COc3ccc(/C=C4\SC(=S)NC4=O)cc32)cc1 — 150-fold lower, 124 nM
- N#Cc1ccc(CN2C(=O)COc3ccc(/C=C4\SC(=S)NC4=O)cc32)cc1 — 120-fold lower, 152 nM
- COc1ccc(C(CC(=O)O)c2cc(OC)c(OC)c(OC)c2)cc1OC (stereo unspecified) — 3-fold lower, 6070 nM
- Cc1cc(F)ccc1Oc1cccc2c(=O)cc(N3CCOCC3)[nH]c12 — the same, 18100 nM
- COc1ccc(CCN2C(=O)COc3ccc(/C=C4\SC(=S)NC4=O)cc32)cc1 — 650-fold lower, 27.7 nM
- COc1cc(O)cc(/C=C2\SC(=S)NC2=O)c1 — 55-fold lower, 328 nM
- COc1ccccc1CNc1cc(C)cc2c(=O)cc(N3CCOCC3)[nH]c12 — 1.7-fold lower, 10700 nM
- O=c1cc(N2CCOCC2)[nH]c2c(Cc3ccccc3)cccc12 — 1.7-fold lower, 10900 nM
- COc1cc(CCN2C(=O)COc3ccc(/C=C4\SC(=S)NC4=O)cc32)cc(OC)c1 — 1500-fold lower, 11.8 nM
- COc1ccc(C(CC(=O)c2ccc3c(c2)OCO3)C(=O)O)cc1OC (stereo unspecified) — 77-fold lower, 234 nM
- CC(C)(C)c1ccc(CCN2C(=O)COc3ccc(/C=C4\SC(=S)NC4=O)cc32)cc1 — 130-fold lower, 140 nM
- O=C1NC(=S)S/C1=C\c1ccc2c(c1)N(CCc1ccc(C(F)(F)F)cc1)C(=O)CO2 — 2200-fold lower, 8.1 nM
- CC(C)(C)c1ccc(CN2C(=O)COc3ccc(/C=C4\SC(=S)NC4=O)cc32)cc1 — 1800-fold lower, 10.2 nM
- Cc1cccc2nc(CSc3ncnc4[nH]cnc34)n(-c3ccccc3Cl)c(=O)c12 — 2.9-fold lower, 6170 nM
- O=C1NC(=S)S/C1=C\c1ccc2c(c1)N(CCc1ccc(Cl)cc1)C(=O)CO2 — 900-fold lower, 20.1 nM
- Cc1cccc(CCN2C(=O)COc3ccc(/C=C4\SC(=S)NC4=O)cc32)c1 — 870-fold lower, 20.9 nM
- O=C(COc1ccc(Cl)cc1C(=O)O)Nc1cccc(NC(=O)Nc2cccc(S(=O)(=O)F)c2)c1 — 2-fold lower, 9160 nM
- O=C(O)C[S+]([O-])c1ccc2c3c(cccc13)C(=O)c1ccccc1-2 (stereo unspecified) — 12-fold lower, 1570 nM
- O=C1NC(=S)S/C1=C\c1ccc2c(c1)N(CCc1ccc(Cl)c(Cl)c1)C(=O)CO2 — 980-fold lower, 18.4 nM
- Cc1ccccc1-n1c(CSc2ncnc3[nH]cnc23)nc2cccc(Cl)c2c1=O — 7.1-fold lower, 2540 nM
- COc1cc2cc(C(=O)O)[nH]c2cc1OCc1ccccc1 — 170-fold lower, 105 nM
- O=C1NC(=S)S/C1=C\c1ccc2c(c1)N(CCc1ccc(Cl)cc1Cl)C(=O)CO2 — 1000-fold lower, 18.1 nM
- O=c1c2ccccc2nc(CSc2ncnc3[nH]cnc23)n1-c1ccccc1Cl — 1.5-fold higher, 27900 nM
- O=c1c2c(Cl)cccc2nc(CSc2ncnc3[nH]cnc23)n1-c1ccccc1-c1ccccc1 — 2.4-fold lower, 7620 nM
- Cc1ccc(CCN2C(=O)COc3ccc(/C=C4\SC(=S)NC4=O)cc32)cc1 — 490-fold lower, 37.3 nM
- Cc1ccc(CN2C(=O)COc3ccc(/C=C4\SC(=S)NC4=O)cc32)cc1C — 1600-fold lower, 11 nM
- COc1cc2cc3c4cc(OC)c(OC)cc4cc[n+]3c(CCC(=O)O)c2cc1OC — 2.5-fold lower, 7330 nM
- Cc1cccc(CN2C(=O)COc3ccc(/C=C4\SC(=S)NC4=O)cc32)c1 — 98-fold lower, 184 nM
- O=C1NC(=S)S/C1=C\c1ccc2c(c1)N(CCc1ccccc1)C(=O)CO2 — 180-fold lower, 103 nM
- O=C1NC(=S)S/C1=C\c1ccc2c(c1)N(CCc1ccc(Br)cc1)C(=O)CO2 — 1800-fold lower, 9.9 nM
- O=c1cc(N2CCOCC2)[nH]c2c(Oc3ccccc3F)cccc12 — 2.5-fold lower, 7260 nM
- O=c1cc(N2CCOCC2)[nH]c2c(OCc3ccccc3)cccc12 — 1.7-fold lower, 10900 nM
- O=C1NC(=S)S/C1=C\c1ccc2c(c1)N(Cc1ccccc1)C(=O)CO2 — 190-fold lower, 97 nM
- CCCCn1c(CSc2ncnc3[nH]cnc23)nc2ccccc2c1=O — 12-fold higher, 218000 nM
- CCOc1ccc(Nc2ccc3c(O)cc(S(=O)(=O)O)cc3c2)cc1 — 18-fold lower, 992 nM
- O=C1NC(=S)S/C1=C\c1ccc(-c2cc([N+](=O)[O-])ccc2Br)o1 — 5-fold lower, 3600 nM
- Cc1cc(C(=O)O)c(C)cc1SSc1cc(C)c(C(=O)O)cc1C — 12-fold lower, 1460 nM
- COc1cc(C[C@@H](CC(=O)c2ccc3c(c2)OCO3)C(=O)O)cc(OC)c1OC — 31-fold lower, 575 nM
- CCCCOc1ccc(C(CC(=O)O)CC(=O)O)cc1OC — 140-fold lower, 134 nM
- O=C1NC(=S)S/C1=C\c1ccc2c(c1)N(Cc1ccc(C(F)(F)F)cc1)C(=O)CO2 — 160-fold lower, 116 nM
- COc1ccc2cc(C(=O)CCCC(C)C(=O)O)ccc2c1 (stereo unspecified) — 3.5-fold lower, 5180 nM
- O=c1c2ccccc2nc(CSc2ncnc3[nH]cnc23)n1N1CCOCC1 — 7.6-fold higher, 138000 nM
- O=c1c2c(Cl)cccc2nc(CSc2ncnc3[nH]cnc23)n1-c1ccccc1Cl — 3.3-fold lower, 5450 nM
- Cc1cc(C)cc(CCN2C(=O)COc3ccc(/C=C4\SC(=S)NC4=O)cc32)c1 — 1600-fold lower, 11.2 nM
- COc1ccccc1-n1c(CSc2ncnc3[nH]cnc23)nc2cccc(C)c2c1=O — 9.9-fold lower, 1820 nM
- O=C(NC(Cc1ccc(OC(=O)OCc2ccccc2)cc1)C(=O)O)OCc1ccccc1 (stereo unspecified) — 56-fold lower, 324 nM
- O=C(O)c1ccccc1SC(Sc1ccccc1C(=O)O)c1cccc(Cl)c1 — 97-fold lower, 187 nM
- O=C1NC(=S)S/C1=C\c1ccc2c(c1)N(CCc1ccc(F)c(F)c1)C(=O)CO2 — 890-fold lower, 20.4 nM
- COc1ccccc1-c1ccc(/C=C2\SC(=O)NC2=O)o1 — 18-fold lower, 1000 nM
- O=C1NC(=S)S/C1=C\c1ccc2c(c1)N(CCc1cccc(Cl)c1)C(=O)CO2 — 1000-fold lower, 18 nM
- COc1cc(C(CC(=O)O)CC(=O)O)ccc1OCc1ccccc1 — 3.1-fold lower, 5880 nM
- O=c1c2c(F)cccc2nc(CSc2ncnc3[nH]cnc23)n1-c1ccccc1Cl — within 1.5-fold, 13100 nM
- COc1cccc(CCN2C(=O)COc3ccc(/C=C4\SC(=S)NC4=O)cc32)c1 — 1600-fold lower, 11.2 nM
- O=C1NC(=S)S/C1=C\c1ccc2c(c1)N(Cc1ccc(Cl)cc1)C(=O)CO2 — 600-fold lower, 30 nM
